Laboratory results from ChEMBL document CHEMBL5033994, “Fragment-Based Optimization of Dihydropyrazino-Benzimidazolones as Metabotropic Glutamate Receptor-2 Positive Allosteric Modulators against Migraine” (J Med Chem, 2021).
≈ marks a conversion by molar mass, not a printed value.

Key:
in vivo [1] = conditions: Wistar, rat, iv, 3 mg/kg
in vivo [2] = conditions: Wistar, rat, iv, 3 mg/kg; remark: listed apart in the source
in vivo [3] = conditions: Wistar, rat, po, 10 mg/kg
in vivo [4] = conditions: Wistar, rat, po, 10 mg/kg; remark: listed apart in the source
in vivo [5] = conditions: Wistar, rat, iv, 3 mg/kg; remark: listed apart in the source
in vivo [6] = conditions: Wistar, rat, po, 10 mg/kg; remark: listed apart in the source
in vivo [7] = conditions: Wistar, rat, po, 10 mg/kg; remark: listed apart in the source
in vivo [8] = conditions: Wistar, rat, po, 10 mg/kg; remark: listed apart in the source
in vivo [9] = conditions: Wistar, rat, brain/plasma, po, 10 mg/kg
physchem [10] = conditions: buffer, pH 7.4
physchem [11] = conditions: buffer, pH 7.4; remark: listed apart in the source

O=C1c2nc3cccc(C(F)(F)F)c3n2CCN1CC1CCC1
clearance (in vivo [1]): 60 mL/min/kg | half-life (in vivo [2]): 15.6 min | half-life (in vivo [3]): 54.6 min | Tmax (in vivo [4]): 30 min | AUC(0-t) at 2 h (in vivo [5]): 833 ng·h/mL | AUC(0-t) at 5 h (in vivo [6]): 1820 ng·h/mL | Cmax (in vivo [7]): 1360 ng/mL | bioavailability (in vivo [8]): 67% | Kp (in vivo [9]): 1.02 | logD (physchem [10]): 3.09 | solubility (physchem [11]): 43 µg/mL (≈ 133 µM)
